Key:
[1] = test system: Hsp90 and GRP94; assay: Purinome captured on ATP Sepharose interrogated with compounds in parallel; eluted proteins identified by MS; type: binding, pig; details: FIG. 3; SDS-PAGE silver staining, mass spectrometry
From the text: The purinome was captured from pig mammary gland extract as described (Hughes et al., Bioorg Med Chem. 2012, 20(10):3298-3305) on gamma phosphate linked ATP Sepharose. Following extensive washing with physiological buffers to remove non-specifically associated proteins, the resin was divided equally and interrogated with the indicated compounds in parallel as described (Hughes et al 2012). All eluted proteins were characterized by SDS-PAGE and silver staining, and then identified by mass spectrometry. […] Key: GRP94, glucose regulated protein 94; Hsp90, heat shock protein 90; LAPT, lapatinimb; Hsp90 STD, purified Hsp90; 17-AAG, derivatized form of geldanamycin, BLK, vehicle control consisting of buffer containing 10% DMSO used to solubilize all compounds included in the test.

[2] = test system: BT474 cells; assay: Competition of compound 10 signal by compound 5 in permeabilized cells (plate reader fluorescence); type: cell-based; details: compound 5 0-10 μM; escin; 30 minutes; Ex488/Em522 nm; FIG. 9
Procedure: BT474 cells were incubated with varying doses of compound 5 (0 μM, 0.01 μM, […], 1 μM and 10 μM) in the presence of a fixed concentration of compound 10 ([…]) and a cell permeabilizing agent (escin) for 30 minutes. The cells were then washed to remove the free probe and cell extracts prepared from the homogenized cells. The amount of drug uptake was then measured by fluorescence (Ex488/Em522 nm) in a micro plate fluorescence reader.

[3] = test system: MCF7 cells; assay: Compound 10 fluorescence in MCF7 cells with anti-Hsp90 antibody or competing compound 5; type: cell-based; details: FIG. 6C
Procedure: In FIG. 6B, the compound was added in the presence of an antibody to Hsp90. […] DAPI (blue) highlights the nucleus of the cell. In FIG. 6 the green staining from compound 10 fluorescence appears white, while blue from the DAPI-stained nuclei appears gray.

[4] = test system: Hsp90; assay: Affinity resin capture of Hsp90 from pig mammary gland extract (SDS-PAGE silver stain, MS sequencing); type: binding; details: 1 mM compound 5 pre-incubated in the tissue extract
Procedure: Several media were prepared as described in Example 7, using compounds 6, 7, 8 and 9. These resins were termed A, B, C and D respectively. To prepare the resin in each case, the appropriate compound was added at 1-10 μmol/gram of resin in minimal methanol.
The ability of each resin to selectively capture Hsp90 from pig mammary gland extract, a tissue shown to be high in ATP binding proteins including native forms of Hsp90, GRP94 and TRAP1, was evaluated. The resin was incubated in the protein solution then washed with a high salt buffer. The bound proteins were removed via an SDS boil procedure, separated by SDS-PAGE electrophoresis, located by silver staining and identified using mass spectrometry (MS) sequencing. […] In the case of resin E (Example 7), bound proteins were eluted with 25 mM sodium dithionite in phosphate-buffered saline.

[5] = biological target: T1, GRP94 (Sus scrofa, UniProt Q29092); assay: Elution of pig mammary gland proteins from gamma phosphate linked ATP Sepharose with increasing amounts of compound; type: binding; details: FIG. 2
T1 construct: The ATP resin was charged with the pig mammary gland extract; from tissue; host or cells: pig mammary gland extract captured on gamma phosphate linked ATP Sepharose
T1 sequence (Q29092 22-804): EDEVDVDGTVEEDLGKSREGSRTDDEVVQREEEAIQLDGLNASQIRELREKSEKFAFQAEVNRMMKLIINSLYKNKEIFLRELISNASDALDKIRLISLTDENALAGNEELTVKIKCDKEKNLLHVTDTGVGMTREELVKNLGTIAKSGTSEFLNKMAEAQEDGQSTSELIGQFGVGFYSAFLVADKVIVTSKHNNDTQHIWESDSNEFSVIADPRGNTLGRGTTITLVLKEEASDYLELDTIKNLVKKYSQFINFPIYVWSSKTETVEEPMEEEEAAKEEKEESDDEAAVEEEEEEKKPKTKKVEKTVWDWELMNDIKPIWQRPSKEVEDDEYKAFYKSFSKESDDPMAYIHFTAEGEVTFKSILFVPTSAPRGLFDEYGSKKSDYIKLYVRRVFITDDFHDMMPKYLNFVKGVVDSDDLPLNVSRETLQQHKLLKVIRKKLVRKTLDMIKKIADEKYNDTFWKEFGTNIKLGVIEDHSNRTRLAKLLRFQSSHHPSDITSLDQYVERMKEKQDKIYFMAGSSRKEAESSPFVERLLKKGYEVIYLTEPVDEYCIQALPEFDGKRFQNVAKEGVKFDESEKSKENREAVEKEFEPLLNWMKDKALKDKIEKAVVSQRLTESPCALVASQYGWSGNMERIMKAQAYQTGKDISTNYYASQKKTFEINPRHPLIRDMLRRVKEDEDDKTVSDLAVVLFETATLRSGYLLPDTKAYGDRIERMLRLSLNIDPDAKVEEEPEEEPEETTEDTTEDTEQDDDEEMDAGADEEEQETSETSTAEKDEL
From the text: (§1) The ATP resin was charged with the pig mammary gland extract and aliquots were distributed into individual wells.

[6] = test system: Hsp90; assay: as above; type: binding; details: FIG. 2
From the text: as §1

| Molecule | proteins recognized (eluted from ATP Sepharose) [1] | other results |
| --- | --- | --- |
| 2-((19-di(ferrocenemethylamino)-4,7,10,13,16-pentaoxanonadecyl)amino)-4-(3,6,6-trimethyl-4-oxo-4,5,6,7-tetrahydro-1H-indazol-1-yl)benzamide [Compound 27] | only recognize Hsp90 |  |
| 17-alkylamino-17-desmethoxygeldanamycin [Compound 17-AAG, reference compound] | specificity for both Hsp90 and GRP94 |  |
| Cc1nn(-c2ccc(C(N)=O)c(N[C@H]3CC[C@H](O)CC3)c2)c2c1C(=O)CC(C)(C)C2 [Compound 5, 2-(((1r,4r)-4-Hydroxycyclohexyl)amino)-4-(3,6,6-trimethyl-4-oxo-4,5,6,7-tetrahydro-1H-indazol-1-yl)benzamide, reference compound] | specificity for both Hsp90 and GRP94 | competition of the signal from compound 10 [2]: effectively competed; competition of compound 10 fluorescence signal [3]: competes away the fluorescence signal; competition of protein binding to the resins [4]: clean exclusion of Hsp90 but not other proteins |
| Cc1nn(-c2ccc(C(N)=O)c(NCCCOCCOCCOCCOCCOCCCN)c2)c2c1C(=O)CC(C)(C)C2 [Compound 8, 2-((19-Amino-4,7,10,13,16-pentaoxanonadecyl)amino)-4-(3,6,6-trimethyl-4-oxo-4,5,6,7-tetrahydro-1H-indazol-1-yl)benzamide] | only recognize Hsp90 | elution of GRP94 from ATP resin [5]: essentially no elution |
| Cc1nn(-c2ccc(C(N)=O)c(NCCCOCCOCCOCCOCCOCCCNc3ccc([N+](=O)[O-])c4nonc34)c2)c2c1C(=O)CC(C)(C)C2 [Compound 11, 2-((19-((7-nitrobenzo[c][1,2,5]oxadiazol-4-yl)amino)-4,7,10,13,16-pentaoxanonadecyl)amino)-4-(3,6,6-trimethyl-4-oxo-4,5,6,7-tetrahydro-1H-indazol-1-yl)benzamide] | only recognize Hsp90 |  |
| Cc1nn(-c2ccc(C(N)=O)c(NCCCOCCOCCOCCOCCO)c2)c2c1C(=O)CC(C)(C)C2 [Compound 19, 2-((1-hydroxy-3,6,9,12-tetraoxapentadecan-15-yl)amino)-4-(3,6,6-trimethyl-4-oxo-4,5,6,7-tetrahydro-1H-indazol-1-yl)benzamide] | only recognize Hsp90 |  |
| Cc1nn(-c2ccc(C(N)=O)c(NCCCOCCOCCOCCOCCOCCCNc3cc(-n4nc(C)c5c4CC(C)(C)CC5=O)ccc3C(N)=O)c2)c2c1C(=O)CC(C)(C)C2 [Compound 20, 2,2′-(4,7,10,13,16-pentaoxanonadecane-1,19-diylbis(azanediyl))bis(4-(3,6,6-trimethyl-4-oxo-4,5,6,7-tetrahydro-1H-indazol-1-yl)benzamide)] | only recognize Hsp90 |  |
| Cc1nn(-c2ccc(C(N)=O)c(N[C@H]3CC[C@H](N)CC3)c2)c2c1C(=O)CC(C)(C)C2 [Compound 28, 2-(((1r,4r)-4-aminocyclohexyl)amino)-4-(3,6,6-trimethyl-4-oxo-4,5,6,7-tetrahydro-1H-indazol-1-yl)benzamide] | only recognize Hsp90 |  |
| Cc1nn(-c2ccc(C(N)=O)c(N[C@H]3CC[C@H]([N+](C)(C)C)CC3)c2)c2c1C(=O)CC(C)(C)C2 [Compound 29, (1r,4r)-4-((2-carbamoyl-5-(3,6,6-trimethyl-4-oxo-4,5,6,7-tetrahydro-1H-indazol-1-yl)phenyl)amino)-N,N,N-trimethylcyclohexanaminium] | only recognize Hsp90 |  |
| CC(C)NCCCn1c(Sc2cc3c(cc2I)OCO3)nc2c(N)ncnc21 [PU-H71] | specificity for both Hsp90 and GRP94 | elution of Hsp90 from ATP resin [6]: strong potency; elution of GRP94 from ATP resin [5]: strong potency |
| CC1(C)CC(=O)c2c(C(F)(F)F)nn(-c3ccc(C(N)=O)c(N[C@H]4CC[C@H](O)CC4)c3)c2C1 [SNX-2112] |  | elution of GRP94 from ATP resin [5]: weaker affinity |

From patent US10927115B2, “Substituted heterocycles for targeting Hsp90” (Duke University, priority 2012, dated 2021)
